Measurements as given in ChEMBL document CHEMBL1817546, “The synthesized novel fluorinated compound (LJJ-10) induces death receptor- and mitochondria-dependent apoptotic cell death in the human osteogenic sarcoma U-2 OS cells” (Eur J Med Chem, 2011).
Active and inactive are the calls of the source. No cut-off for these calls is given here.

Assays:
[1] = Induction of death receptor signaling-mediated apoptosis in human U2OS cells assessed as increase in Endo-G level at 30 uM after 12 to 48 hrs by Western blotting; assay type: cell-based
[2] = Induction of death receptor signaling-mediated apoptosis in human U2OS cells assessed decrease in as cell viability at 30 uM after 48 hrs by MTT assay in presence of caspase-9 inhibitor Z-LEHD-FMK; assay type: cell-based
[3] = Induction of death receptor signaling-mediated apoptosis in human U2OS cells assessed as increase in AIF level at 30 uM after 12 to 48 hrs by Western blotting; assay type: cell-based
[4] = Cytotoxicity against human FOB cells assessed as reduction in cell number after 48 hrs by MTT assay relative to control; assay type: cell-based
[5] = Induction of death receptor signaling-mediated apoptosis in human U2OS cells assessed as increase caspase-8 activity measuring release of pNA at 30 uM after 48 hrs by spectrophotometry; assay type: cell-based
U2OS [6] = assay: Induction of apoptosis in human U2OS cells after 48 hrs by MTT assay in presence of anti-FasL monoclonal antibody; assay type: functional, cell-based
[7] = Induction of death receptor signaling-mediated apoptosis in human U2OS cells assessed as increase in Fas level at 30 uM after 12 to 48 hrs by Western blotting method; assay type: cell-based
[8] = Induction of death receptor signaling-mediated apoptosis in human U2OS cells assessed as increase in production of reactive oxygen species at 30 uM after 2 to 12 hrs by flow cytometry relative to control; assay type: cell-based; conditions: TDE = time-dependent effect
[9] = Induction of death receptor signaling-mediated apoptosis in human U2OS cells assessed as decrease in Bcl-2 level at 30 uM after 12 to 48 hrs by Western blotting; assay type: cell-based
[10] = Induction of death receptor signaling-mediated apoptosis in human U2OS cells assessed as increase in Bax level at 30 uM after 12 to 48 hrs by Western blotting; assay type: cell-based
U2OS [11] = assay: Induction of apoptosis in human U2OS cells assessed as cell rounding at 30 uM after 48 hrs by phase-contrast microscopic analysis; assay type: functional, cell-based
U2OS [12] = assay: Induction of apoptosis in human U2OS cells after 48 hrs by MTT assay in presence of cyclosporine A; assay type: functional, cell-based
[13] = Induction of death receptor signaling-mediated apoptosis in human U2OS cells assessed as increase in FasL expression at 30 uM after 12 hrs using FasL-FITC mAb by flow cytometry (Rvb= 1.23+/-0.11 %); assay type: cell-based
[14] = Induction of death receptor signaling-mediated apoptosis in human U2OS cells assessed as increase caspase-9 activity measuring release of pNA at 30 uM after 48 hrs by spectrophotometry; assay type: cell-based
[15] = Induction of death receptor signaling-mediated apoptosis in human U2OS cells assessed as increase in Fas expression at 30 uM after 12 hrs using FasL-FITC mAb by flow cytometry (Rvb= 2.01+/-0.74 %); assay type: cell-based
[16] = Induction of death receptor signaling-mediated apoptosis in human U2OS cells assessed as decrease in Bid level at 30 uM after 12 to 48 hrs by Western blotting; assay type: cell-based
U2OS [17] = assay: Induction of DNA damage in human U2OS cells by comet assay; assay type: functional, cell-based
[18] = Induction of death receptor signaling-mediated apoptosis in human U2OS cells assessed as increase in FasL level at 30 uM after 12 to 48 hrs by Western blotting method; assay type: cell-based
[19] = Induction of death receptor signaling-mediated apoptosis in human U2OS cells assessed as increase in FADD level at 30 uM after 12 to 48 hrs by Western blotting method; assay type: cell-based
[20] = Induction of death receptor signaling-mediated apoptosis in human U2OS cells assessed as increase in caspase-8 level at 30 uM after 12 to 48 hrs by Western blotting method; assay type: cell-based
[21] = Induction of death receptor signaling-mediated apoptosis in human U2OS cells assessed as increase caspase-3 activity measuring release of pNA at 30 uM after 48 hrs by spectrophotometry; assay type: cell-based
MCF7 = assay: Cytotoxicity against human MCF7 cells after 48 hrs by MTT assay; assay type: functional, cell-based; conditions: MCF7, 48 h
MDA-MB-231 = assay: Cytotoxicity against human MDA-MB-231 cells after 48 hrs by MTT assay; assay type: functional, cell-based; conditions: MDA-MB-231, 48 h
[22] = Induction of death receptor signaling-mediated apoptosis in human U2OS cells assessed as decrease in pro-caspase3 level at 30 uM after 12 to 48 hrs by Western blotting method; assay type: cell-based
[23] = Cytotoxicity against human HT29-AK cells after 48 hrs by MTT assay; assay type: functional, cell-based
U2OS [24] = assay: Cytotoxicity against human U2OS cells after 48 hrs by MTT assay; assay type: functional, cell-based
[25] = Induction of death receptor signaling-mediated apoptosis in human U2OS cells assessed as decrease in cell viability at 30 uM after 48 hrs by MTT assay in presence of caspase-3 inhibitor […]; assay type: cell-based
COLO 205 = assay: Cytotoxicity against human COLO205 cells after 48 hrs by MTT assay; assay type: functional, cell-based; conditions: COLO 205, 48 h
[26] = Induction of death receptor signaling-mediated apoptosis in human U2OS cells assessed as increase in caspase-9 level at 30 uM after 12 to 48 hrs by Western blotting; assay type: cell-based
U-937 = assay: Cytotoxicity against human U937 cells after 48 hrs by MTT assay; assay type: functional, cell-based; conditions: U-937, 48 h
[27] = Induction of death receptor signaling-mediated apoptosis in human U2OS cells assessed as decrease in cell viability at 30 uM after 48 hrs by MTT assay in presence of caspase-8 inhibitor Z-IETD-FMK; assay type: cell-based
U2OS [28] = assay: Induction of apoptosis in human U2OS cells after 48 hrs by MTT assay in presence of ROS scavenger NAC; assay type: functional, cell-based
HL-60 = assay: Cytotoxicity against human HL60 cells after 48 hrs by MTT assay; assay type: functional, cell-based; conditions: HL-60, 48 h
U2OS [29] = assay: Induction of apoptosis in human U2OS cells assessed as cell shrinking at 30 uM after 48 hrs by phase-contrast microscopic analysis; assay type: functional, cell-based
[30] = Induction of death receptor signaling-mediated apoptosis in human U2OS cells assessed as increase in cytochrome c level at 30 uM after 12 to 48 hrs by Western blotting; assay type: cell-based
[31] = Induction of death receptor signaling-mediated apoptosis in human U2OS cells assessed as increase in Apaf-1 level at 30 uM after 12 to 48 hrs by Western blotting; assay type: cell-based
[32] = Induction of death receptor signaling-mediated apoptosis in human U2OS cells assessed as decrease in mitochondrial membrane potential at 30 uM after 2 to 12 hrs relative to control; assay type: cell-based; conditions: TDE = time-dependent effect
U2OS [33] = assay: Cytotoxicity against human U2OS cells assessed as growth inhibition after 48 hrs by MTT assay relative to control; assay type: functional, cell-based

For `COc1cccc(Nc2nc(-c3cccc(F)c3)nc3ccc(F)cc23)c1`, the Activity [1] was “Active”, the Activity [2] was “inactive” and the Activity [3] was “Active”. For the same compound, the Activity [4] was “Non-toxic”, the Activity [5] was “Active” and the Activity (U2OS [6]) was “inactive”. The Activity [7] was “Active”, the Activity [8] was “tde” and the Activity [9] was “Active”. For the same compound, the Activity [10] was “Active”, the Activity (U2OS [11]) was “Active” and the Activity (U2OS [12]) was “inactive”. For the same compound, the Activity [13] was 76.2%, the Activity [14] was “Active” and the Activity [15] was 76.2%. For the same compound, the Activity [16] was “Active”, the Activity (U2OS [17]) was “Dose-dependent effect” and the Activity [18] was “Active”. The Activity [19] was “Active”, the Activity [20] was “Active” and the Activity [21] was “Active”. The IC50 (MCF7) was 46.3 µM, the IC50 (MDA-MB-231) was 47.1 µM and the Activity [22] was “Active”. The IC50 [23] was 40.4 µM, the IC50 (U2OS [24]) was 30.3 µM and the Activity [25] was “inactive”. For the same compound, the IC50 (COLO 205) was 44.7 µM, the Activity [26] was “Active” and the IC50 (U-937) was 39.6 µM. The Activity [27] was “inactive”, the Activity (U2OS [28]) was “inactive” and the IC50 (HL-60) was 35.5 µM. For the same compound, the Activity (U2OS [29]) was “Active”, the Activity [30] was “Active” and the Activity [31] was “Active”. The Activity [32] was “tde” and the “growth inhibition (GI)” value (U2OS [33]) was “Dose-dependent effect”.
